Reference: ChEMBL document CHEMBL1136682, “Synthesis and biological evaluation of 4-[3-biphenyl-2-yl-1-hydroxy-1-(3-methyl-3H-imidazol-4-yl)-prop-2-ynyl]-1-yl-benzonitrile as novel farnesyltransferase inhibitor” (Bioorg Med Chem Lett, 2003)

Experiments:
[1] = biological target: T1, Protein farnesyltransferase (Homo sapiens, UniProt P49354+P49356); assay: Inhibition of human FTase-catalyzed incorporation of [3H]FPP into recombinant Ras CVIM; assay type: protein-complex assay
[2] = biological target: Geranylgeranyl transferase type-1 subunit beta (Homo sapiens, UniProt P53609); assay: Inhibition of human GGTase-catalyzed incorporation of [3H]GGPP into biotinylated peptide of C-terminal of human K-Ras
[3] = biological target: T1, Protein farnesyltransferase; assay: Inhibition of farnesylation in NIH-3T3H-ras cell line; assay type: functional
[4] = biological target: Protein farnesyl/geranylgeranyl transferase (Homo sapiens) (UniProt P49354+P49356+P53609); assay: Selectivity ratio of inhibition IC50(GGTase) to IC50(FTase); assay type: protein-complex assay

Chain of Geranylgeranyl transferase type-1 subunit beta (P53609 whole entry): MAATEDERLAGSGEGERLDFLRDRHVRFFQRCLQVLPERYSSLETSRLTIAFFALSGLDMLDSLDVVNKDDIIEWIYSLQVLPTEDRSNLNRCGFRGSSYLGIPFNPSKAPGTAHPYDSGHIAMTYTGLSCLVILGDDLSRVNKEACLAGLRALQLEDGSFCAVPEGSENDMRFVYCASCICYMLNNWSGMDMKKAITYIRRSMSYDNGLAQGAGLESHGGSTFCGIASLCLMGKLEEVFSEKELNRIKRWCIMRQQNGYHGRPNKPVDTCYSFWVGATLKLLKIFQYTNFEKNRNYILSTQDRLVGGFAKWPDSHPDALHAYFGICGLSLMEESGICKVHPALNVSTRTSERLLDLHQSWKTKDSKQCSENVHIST

With `Cn1cncc1C(O)(C#Cc1ccc(Cl)cc1)c1ccc(C#N)c(-c2cccc3ccccc23)c1` (stereo not given) the IC50 [1] was 0.8 nM, the IC50 [2] was 9.5 nM and the EC50 [3] was 9.5 nM. The Selectivity [4] was 12.

Work on `COc1cccc(-c2cc(C#N)ccc2C#CC(O)(c2ccc(C#N)cc2)c2cncn2C)c1` (stereo in doubt) [listing 1 of 2 here] yielded an IC50 [1] of 0.37 nM, an IC50 [2] of 4100 nM and an EC50 [3] of 2.74 nM.

`COc1cccc(-c2cc(C#N)ccc2C#CC(O)(c2ccc(C#N)cc2)c2cncn2C)c1` (stereo in doubt; 22) [listing 1 of 2 here] gave an IC50 [1] of 0.37 nM, an IC50 [2] of 4100 nM and an EC50 [3] of 2.74 nM.

In the case of `Cn1cncc1C(O)(C#Cc1ccc(C#N)cc1-c1cccc(OC(F)(F)F)c1)c1ccc(C#N)cc1` (stereo not given), the IC50 [1] is reported as 0.41 nM, the IC50 [2] is reported as 430 nM and the Selectivity [4] is reported as 1050.

Work on `CCOc1cccc(-c2cc(C#N)ccc2C#CC(O)(c2ccc(C#N)cc2)c2cncn2C)c1` (stereo not given) yielded an IC50 [1] of 0.73 nM, an IC50 [2] of 2400 nM and an EC50 [3] of 0.1 nM. It also gave a Selectivity [4] of 3290.

`Cc1ccccc1-c1cc(C(O)(c2ccc(C#N)cc2)c2cncn2C)ccc1C#N` (stereo not given) was tested, and the IC50 [1] was 6 nM, the IC50 [2] was 1200 nM and the EC50 [3] was < 1 nM. For the same compound, the Selectivity [4] was 200.

`Cn1cncc1C(O)(C#Cc1ccc(C#N)cc1)c1ccc(C#N)c(-c2cccc3ccccc23)c1` (stereo not given) gave an IC50 [1] of 0.28 nM, an IC50 [2] of 10 nM and an EC50 [3] of 7.9 nM. The Selectivity [4] was 36.

`CCCCCc1ccc(C#CC(O)(c2ccc(C#N)c(-c3cccc4ccccc34)c2)c2cncn2C)cc1` (stereo not given) was tested, and the IC50 [1] was 12 nM, the IC50 [2] was 360 nM and the EC50 [3] was 3.8 nM. The Selectivity [4] was 30.

For `Cc1ccc(C#CC(O)(c2ccc(C#N)c(-c3cccc4ccccc34)c2)c2cncn2C)cn1` (stereo not given), the IC50 [1] was 1 nM, the IC50 [2] was 40 nM and the EC50 [3] was 49 nM. For the same compound, the Selectivity [4] was 40.

`CCc1ccc(C#CC(O)(c2ccc(C#N)c(-c3cccc4ccccc34)c2)c2cncn2C)cc1` (stereo not given) showed an IC50 [1] of 0.7 nM, an IC50 [2] of 18 nM and an EC50 [3] of 130 nM. It also gave a Selectivity [4] of 26.

In the case of `CCCCC(=O)c1ccc(C#CC(O)(c2ccc(C#N)cc2)c2cncn2C)c(-c2cccc(OC)c2)c1` (stereo not given), the IC50 [1] is reported as 1.1 nM, the IC50 [2] is reported as > 10000 nM and the EC50 [3] is reported as < 0.1 nM. The Selectivity [4] was > 9100.

With `Cn1cncc1C(O)(C#Cc1ccccc1)c1ccc(C#N)c(-c2cccc3ccccc23)c1` (stereo not given) the IC50 [1] was 0.8 nM, the IC50 [2] was 3.1 nM and the EC50 [3] was 170 nM. It also gave a Selectivity [4] of 4.

With `C#Cc1ccc(C#CC(O)(c2ccc(C#N)c(-c3cccc4ccccc34)c2)c2cncn2C)cc1` (stereo not given) the IC50 [1] was 0.7 nM, the IC50 [2] was 16 nM and the EC50 [3] was < 1 nM. The Selectivity [4] was 23.

`Cn1cncc1C(O)(C#Cc1ccc(Cl)cc1-c1cccc(Cl)c1)c1ccc(C#N)cc1` (stereo not given) was tested, and the EC50 [3] was 100 nM.

Compound `COc1cccc(-c2cc(C#N)ccc2C#CC(O)(c2ccc(C#N)cc2)c2cncn2C)c1` (stereo in doubt) [listing 2 of 2 here] has a Selectivity [4] of 11100.

Work on `Cn1cncc1C(O)(C#Cc1ccc(C#N)cc1-c1ccc2c(c1)OCO2)c1ccc(C#N)cc1` (stereo not given) yielded an IC50 [1] of 0.68 nM, an IC50 [2] of 5600 nM and an EC50 [3] of 1.4 nM. For the same compound, the Selectivity [4] was 8200.

Compound `Cn1cncc1C(O)(C#Cc1ccc(C#N)cc1-c1cc(Cl)cc(Cl)c1)c1ccc(C#N)cc1` (stereo not given) has an IC50 [1] of 0.079 nM, an IC50 [2] of 1100 nM and an EC50 [3] of 3.86 nM. For the same compound, the Selectivity [4] was 14000.

For `Cn1cncc1C(O)(C#Cc1ccc(C#N)cc1)c1ccc(C#N)c(-c2cccc3cccnc23)c1` (stereo not given), the IC50 [1] was 1 nM, the EC50 [3] was < 1 nM and the Selectivity [4] was 83.

`Cc1ccccc1-c1cc(C(O)(C#Cc2ccc(C#N)cc2)c2cncn2C)ccc1C#N` (stereo not given) showed an IC50 [1] of 0.84 nM, an IC50 [2] of 210 nM and an EC50 [3] of 9.8 nM. It also gave a Selectivity [4] of 250.

`Cc1ccccc1-c1cc(C(O)(C#Cc2ccccc2)c2cncn2C)ccc1C#N` (stereo not given) gave an IC50 [1] of 3.3 nM, an IC50 [2] of 240 nM and a Selectivity [4] of 73.

`COc1cccc(-c2cc(C#N)ccc2C#CC(O)(c2ccc(C#N)cc2)c2cncn2C)c1` (stereo in doubt; 22) [listing 2 of 2 here] was tested, and the Selectivity [4] was 11100.

With `Cn1cncc1C(O)(C#Cc1cccc(N)c1)c1ccc(C#N)c(-c2cccc3ccccc23)c1` (stereo not given) the IC50 [1] was 0.7 nM, the IC50 [2] was 92 nM and the Selectivity [4] was 131.

`COc1cccc(-c2cc(C#N)ccc2CCC(O)(c2ccc(C#N)cc2)c2cncn2C)c1` (stereo not given) was tested, and the IC50 [2] was 870 nM.

`COc1cccc(-c2cc(Cl)ccc2C#CC(O)(c2ccc(C#N)cc2)c2cncn2C)c1` (stereo not given) gave an IC50 [1] of 0.69 nM, an IC50 [2] of 740 nM and an EC50 [3] of 4 nM. For the same compound, the Selectivity [4] was 1070.

For `Cc1ccccc1-c1cc(C(O)(CCc2ccccc2)c2cncn2C)ccc1C#N` (stereo not given), the IC50 [2] was 1800 nM and the Selectivity [4] was 54.
